Tested on: NanoLuc-PEST expressing L. mexicana axenic amastigotes
Test: microbe, parasite or virus in culture
Assay type: cell-based
Conditions: 72 hours, relative to DMSO only control, n = 4; for viability at 2 µM / viability at 10 µM: Leishmania mexicana, read-out: Relative Bioluminescence (%)

Compound | Relative Bioluminescence (%) (2 µM compound) | Relative Bioluminescence (%) (10 µM compound) | viability at 2 µM (2 µM compound) | viability at 10 µM (10 µM compound)
Cc1nnc(NCc2cccc(Cl)c2)c2ccccc12 [MMV676555] | 104.08% | 90.53% | – | –
Cc1ccc(C(=O)Nc2ccc(S(=O)(=O)O)c3cc(S(=O)(=O)O)cc(S(=O)(=O)O)c23)cc1NC(=O)c1cccc(NC(=O)Nc2cccc(C(=O)Nc3cc(C(=O)Nc4ccc(S(=O)(=O)O)c5cc(S(=O)(=O)O)cc(S(=O)(=O)O)c45)ccc3C)c2)c1 [MMV637953, Suramin, reference compound] | – | – | 105% | 117%
CCc1ccc([C@@H]2C[C@H](C(F)(F)F)n3ncc(C(=O)NCc4ccc(OC)cc4)c3N2)cc1 [MMV687180] | 49.23% | 1.44% | – | –
CN(C(=O)c1cc2c(-c3cncnc3)cccc2[nH]1)c1ccccc1 [MMV024443] | 64.75% | 32.60% | – | –
COc1ccc2nc(C)cc(OCC(=O)Nc3ccccc3OC)c2c1 [MMV687188] | 75.17% | 98.10% | – | –
FC(F)(F)c1cccc(-c2nc3c(NCc4ccncc4)nccc3[nH]2)c1 [MMV032967] | 79.58% | 75.35% | – | –
O=C(C1CCN(c2cc(-n3cccc3)ncn2)CC1)N1CCc2ccccc2C1 [MMV687172] | 73.27% | 54.36% | – | –
CC(C)(C)n1nc(-c2ccccc2)c2c(N)ncnc21 [MMV688548] | 78.88% | 77.20% | – | –
Cc1cnc(N2CCN[C@@H](Cc3ccccc3)C2)nc1Oc1ccc(-n2ccnc2)cc1 [MMV687765] | 69.43% | 74.28% | – | –
CCc1ccccc1-n1c(C)cn2c3c(=O)n(C(C(=O)OC)C(C)C)c(=O)n(C)c3nc12 (stereo not shown) [MMV688550] | 66.32% | 56.13% | – | –
NS(=O)(=O)c1cccc(-c2ccc3ncc(N4CCOCC4)nc3c2)c1 [MMV023860] | 79.77% | 74.37% | – | –
O=C1O[C@@H](COc2ccon2)CN1c1cc(F)c(C2=CCN(Cc3ccccc3)CC2)c(F)c1 [MMV687813] | 52.93% | 58.34% | – | –
Nc1ncnc2c1c(-c1cnc3ccccc3c1)nn2CC1CCNCC1 [MMV688411] | 105.51% | 65.85% | – | –
FC(F)(F)c1cnc(Sc2nnc(-c3ccncc3)o2)c(Cl)c1 [MMV011765] | 84.80% | 45.24% | – | –
FC(F)(F)c1cc(NCCc2ccccc2)nc(-c2ccccn2)n1 [MMV659010] | 95.95% | 88.01% | – | –
NCC[C@H](O)C(=O)N[C@@H]1C[C@H](N)[C@@H](O[C@H]2O[C@H](CN)[C@@H](O)[C@H](O)[C@H]2O)[C@H](O)[C@H]1O[C@H]1O[C@H](CO)[C@@H](O)[C@H](N)[C@H]1O [MMV687796, Amikacin, reference compound] | – | – | 79.3% | 58.2%
O=C(NCCc1ccn(-c2ccccc2)n1)C1CCCCC1 [MMV688795] | 79.12% | 86.70% | – | –
CS(=O)(=O)N1CCC(CCn2nc(Cc3cccc4ccccc34)c3c(N)ncnc32)CC1 [MMV688470] | 96.68% | 53.17% | – | –
CC1CCCCN1C(=O)NCCc1coc(-c2ccc(F)cc2)n1 (stereo not shown) [MMV688797] | 76.99% | 71.92% | – | –
COc1nc2ccc(Br)cc2cc1[C@@H](c1ccccc1)[C@@](O)(CCN(C)C)c1cccc2ccccc12 [MMV689758, Bedaquiline, reference compound] | – | – | 94.9% | 45.4%
CC(C)C(NC(=O)Cc1cccc2ccccc12)C(=O)Nc1cccc(C#N)c1 (stereo not shown) [MMV020591] | 87.56% | 94.51% | – | –

Compound | Relative Bioluminescence (%) (2 µM compound) | Relative Bioluminescence (%) (10 µM compound) | viability at 2 µM (2 µM compound) | viability at 10 µM (10 µM compound)
CCc1nc2ccc(C(=O)NCc3ccc4c(c3)OCO4)cn2c1N(C)Cc1cccs1 [MMV407539] | 104.77% | 70.84% | – | –
COc1cccc(-c2cc3c(Nc4cccnc4)nccc3[nH]2)c1 [MMV392832] | 70.60% | 51.50% | – | –
Cc1ccccc1C(=O)N1NC(=Nc2ccccc2)SC1(C)C [MMV688771] | 70.08% | 37.89% | – | –
Cc1noc(C)c1C(=O)N1CCCC(c2[nH]c3c(C)cccc3c2-c2ccncc2)C1 (stereo not shown) [MMV020623] | 68.14% | 86.96% | – | –
Nc1ncc(-c2cn[nH]c2)cc1-c1nc2cc(Cl)cnc2[nH]1 [MMV023370] | 62.35% | 54.43% | – | –
CC(C)c1ncc(-c2ccncc2)c(C2CCC(CNC(=O)c3cccnc3)CC2)n1 (stereo not shown) [MMV676442] | 118.75% | 113.29% | – | –
O=C(Nc1cccc(-c2ccc(NCCCN3CCCC3)nc2)c1)c1ccccc1 [MMV023953] | 85.42% | 83.96% | – | –
c1csc(-c2cnc3sc(NCC4CCOCC4)nn23)c1 [MMV010764] | 69.50% | 31.69% | – | –
C[C@H]1c2cccc(O)c2C(=O)C2=C(O)[C@]3(O)C(=O)C(C(N)=O)=C(O)[C@@H](N(C)C)[C@@H]3[C@@H](O)[C@@H]21 [MMV000011, Doxycycline, reference compound] | – | – | 95% | 94.7%
Clc1ccc(CN2CCN(C3=NCCN3)CC2)cc1Cl [MMV689060] | 99.56% | 112.63% | – | –
CC(C)n1ncc2c(C(=O)NCC(c3cccs3)N3CCOCC3)cc(-c3ccccc3)nc21 (stereo not shown) [MMV676406] | 54.35% | 35.79% | – | –
O=C(NCCc1ccccc1)c1cc(-c2cccnc2)cnc1NCC1CC1 [MMV026490] | 92.31% | 60.31% | – | –
O=C(Nc1ccc(F)c(-c2nc3ncc(-c4ccccc4)cc3[nH]2)c1)N1CCCC1 [MMV688372] | 17.89% | 6.87% | – | –
CS(=O)(=O)c1ccc(C(=O)N(CC2CCCO2)c2nc3ccccc3s2)cc1[N+](=O)[O-] (stereo not shown) [MMV688761] | 39.52% | -1.44% | – | –
CC(C)(C)CN1C(=O)C(c2ccccc2)(c2ccccc2)N=C1N [MMV026550] | 91.50% | 87.66% | – | –
COc1cccc(OCC(=O)c2ccc(Br)cc2)c1 [MMV676379] | 81.42% | 79.42% | – | –
CC(C)(C)OC(=O)N1CCN(c2nccc(-c3ccc(-c4ccc(Cl)cc4)s3)n2)CC1 [MMV688416] | 76.11% | 66.54% | – | –
CNc1cc(C)nc(C2CN(C(=O)c3n[nH]c4ccccc34)CCO2)c1 (stereo not shown) [MMV689709] | 77.39% | 68.10% | – | –
O=C(NC1=NCCS1)c1sc2cc(F)ccc2c1Cl [MMV676584] | 83.30% | 89.36% | – | –
Cc1cc(C2=NOC(c3cc(Cl)c(F)c(Cl)c3)(C(F)(F)F)C2)ccc1C(=O)NCc1ccc2c(c1)C(C)(C)OB2O (stereo not shown) [MMV687776] | 57.43% | -1.15% | – | –
